Assay results reported in the NIST ThermoML archive (doi:10.1021/acs.jced.8b00132).
Values joined by “and” are separate entries in the source; they are usually repeats but may differ in a detail not shown here. Equal entries are not always repeated.

O=C(C(F)(F)C(F)(F)F)C(F)(C(F)(F)F)C(F)(F)F [dodecafluoro-2-methylpentan-3-one]
Conditions	thermal conductivity
432.7 K, 49519 kPa, Liquid, transient hot wire	0.06451 W/m/K
432.71 K, 656 kPa, Gas, hot wire	0.02379 W/m/K
432.72 K, 1422 kPa, Gas, transient hot wire	0.02498 W/m/K
432.72 K, 49517 kPa, Liquid, transient hot wire	0.06454 W/m/K
432.77 K, 1418 kPa, Gas, transient hot wire	0.02496 W/m/K
432.77 K, 1419 kPa, Gas, transient hot wire	0.02504 W/m/K
432.79 K, 1709 kPa, Liquid, transient hot wire	0.03809 W/m/K
432.79 K, 34245 kPa, Liquid, transient hot wire	0.05883 W/m/K
432.8 K, 1709 kPa, Liquid, transient hot wire	0.03764 W/m/K
432.8 K, 1977 kPa, Liquid, transient hot wire	0.03806 W/m/K
432.81 K, 652 kPa, Gas, hot wire	0.02381 W/m/K
432.81 K, 655 kPa, Gas, hot wire	0.02367 W/m/K
432.81 K, 1704 kPa, Liquid, transient hot wire	0.03807 W/m/K
432.81 K, 1706 kPa, Liquid, transient hot wire	0.03761 W/m/K
432.81 K, 1977 kPa, Liquid, transient hot wire	0.03794 W/m/K
432.81 K, 22767 kPa, Liquid, transient hot wire	0.05368 W/m/K
432.82 K, 375 kPa, Gas, hot wire	0.02254 W/m/K
432.83 K, 376 kPa, Gas, hot wire	0.02257 W/m/K
432.83 K, 22777 kPa, Liquid, transient hot wire	0.05369 W/m/K
432.84 K, 2631 kPa, Liquid, transient hot wire	0.03896 W/m/K
432.84 K, 49496 kPa, Liquid, transient hot wire	0.06439 W/m/K
432.84 K, 49505 kPa, Liquid, transient hot wire	0.06438 W/m/K
432.86 K, 2631 kPa, Liquid, transient hot wire	0.03897 W/m/K
432.87 K, 158 kPa, Gas, hot wire	0.02102 W/m/K
432.87 K, 159 kPa, Gas, hot wire	0.02111 W/m/K
432.87 K, 3941 kPa, Liquid, transient hot wire	0.04063 W/m/K
432.88 K, 1297 kPa, Gas, transient hot wire	0.02344 W/m/K
432.88 K, 1298 kPa, Gas, transient hot wire	0.02358 W/m/K
432.88 K, 1418 kPa, Gas, transient hot wire	0.02521 W/m/K
432.9 K, 43 kPa, Gas, hot wire	0.02081 W/m/K
432.9 K, 650 kPa, Gas, hot wire	0.02367 W/m/K
432.91 K, 42 kPa, Gas, hot wire	0.02089 W/m/K
432.93 K, 374 kPa, Gas, hot wire	0.02268 W/m/K
432.93 K, 375 kPa, Gas, hot wire	0.02269 W/m/K
432.93 K, 1976 kPa, Liquid, transient hot wire	0.03821 W/m/K
432.93 K, 34232 kPa, Liquid, transient hot wire	0.05866 W/m/K
432.93 K, 34243 kPa, Liquid, transient hot wire	0.05865 W/m/K
432.94 K, 1977 kPa, Liquid, transient hot wire	0.03807 W/m/K
432.95 K, 1709 kPa, Liquid, transient hot wire	0.03814 W/m/K
432.98 K, 22754 kPa, Liquid, transient hot wire	0.05357 W/m/K
432.98 K, 49470 kPa, Liquid, transient hot wire	0.06431 W/m/K
432.99 K, 157 kPa, Gas, hot wire	0.02107 W/m/K and 0.02099 W/m/K
432.99 K, 1298 kPa, Gas, transient hot wire	0.02366 W/m/K
433 K, 1299 kPa, Gas, transient hot wire	0.02363 W/m/K
433 K, 6150 kPa, Liquid, transient hot wire	0.04309 W/m/K
433 K, 15091 kPa, Liquid, transient hot wire	0.04962 W/m/K
433 K, 15095 kPa, Liquid, transient hot wire	0.04957 W/m/K
433.01 K, 43 kPa, Gas, hot wire	0.02102 W/m/K and 0.02104 W/m/K
433.02 K, 647 kPa, Gas, hot wire	0.02339 W/m/K
433.02 K, 648 kPa, Gas, hot wire	0.02337 W/m/K
433.02 K, 6152 kPa, Liquid, transient hot wire	0.04303 W/m/K
433.03 K, 3941 kPa, Liquid, transient hot wire	0.04082 W/m/K
433.04 K, 373 kPa, Gas, hot wire	0.02274 W/m/K
433.04 K, 2629 kPa, Liquid, transient hot wire	0.03906 W/m/K
433.04 K, 2631 kPa, Liquid, transient hot wire	0.03946 W/m/K
433.05 K, 372 kPa, Gas, hot wire	0.02268 W/m/K
433.05 K, 3942 kPa, Liquid, transient hot wire	0.04075 W/m/K
433.08 K, 34226 kPa, Liquid, transient hot wire	0.05871 W/m/K
433.08 K, 34233 kPa, Liquid, transient hot wire	0.05874 W/m/K
433.11 K, 155 kPa, Gas, hot wire	0.02111 W/m/K
433.12 K, 156 kPa, Gas, hot wire	0.02101 W/m/K
433.12 K, 646 kPa, Gas, hot wire	0.02323 W/m/K
433.12 K, 9670 kPa, Liquid, transient hot wire	0.04595 W/m/K
433.12 K, 9671 kPa, Liquid, transient hot wire	0.04584 W/m/K
433.12 K, 49466 kPa, Liquid, transient hot wire	0.06434 W/m/K
433.13 K, 43 kPa, Gas, hot wire	0.02102 W/m/K
433.13 K, 644 kPa, Gas, hot wire	0.02306 W/m/K
433.13 K, 22732 kPa, Liquid, transient hot wire	0.05371 W/m/K
433.13 K, 22752 kPa, Liquid, transient hot wire	0.05367 W/m/K
433.13 K, 49459 kPa, Liquid, transient hot wire	0.06442 W/m/K
433.14 K, 43 kPa, Gas, hot wire	0.02099 W/m/K
433.14 K, 1300 kPa, Gas, transient hot wire	0.02391 W/m/K
433.16 K, 372 kPa, Gas, hot wire	0.02272 W/m/K and 0.02276 W/m/K
433.16 K, 15084 kPa, Liquid, transient hot wire	0.04944 W/m/K
433.19 K, 6155 kPa, Liquid, transient hot wire	0.04297 W/m/K
433.19 K, 6159 kPa, Liquid, transient hot wire	0.04336 W/m/K
433.19 K, 15094 kPa, Liquid, transient hot wire	0.04947 W/m/K
433.21 K, 1138 kPa, Gas, transient hot wire	0.02265 W/m/K and 0.02278 W/m/K
433.24 K, 155 kPa, Gas, hot wire	0.02111 W/m/K
433.24 K, 1299 kPa, Gas, transient hot wire	0.02422 W/m/K
433.24 K, 3943 kPa, Liquid, transient hot wire	0.04078 W/m/K
433.24 K, 3944 kPa, Liquid, transient hot wire	0.04039 W/m/K
433.24 K, 34207 kPa, Liquid, transient hot wire	0.05868 W/m/K
433.24 K, 34211 kPa, Liquid, transient hot wire	0.05857 W/m/K
